Laboratory results reported in patent publication EP4559896A1, “PH-SENSITIVE CATIONIC LIPID AND LIPID NANOPARTICLE” (National University Corporation Hokkaido University, priority 2022, dated 2024).
Blank lines part the entries; values can stand above or below the compound they belong to.

Columns and labels:
BALB/c mice = test: Fluc activity in tissues of mice administered with Fluc mRNA-loaded lipid nanoparticles; format: in vivo; conditions: for Fluc activity, predominant organ (liver or spleen): Example 34, TOT-5/DSPC/chol/PEG-DMG=65/X/35-X/1.5 (mol%), i.v. 0.01 mg/kg Fluc mRNA, 6 hours
Method: Lipid nanoparticles were administered to mice by intravenous injection into the tail vein using a 27G needle. Unless otherwise specified, BALB/c mice (4 to 5 weeks old, female) were used.
First, BALB/c mice (female, 4 weeks old) were intravenously injected with lipid nanoparticles encapsulating Fluc mRNA (Fluc mRNA-loaded lipid nanoparticles) at a dose of 0.01 mg mRNA/kg. Six hours after intravenous injection, the mice were euthanized, each tissue was collected, frozen in liquid nitrogen, and stored at -80°C. The tissues were homogenized in passive lysis buffer (manufactured by Promega) using a bead-type cell disruptor (Micro Smash MS-100R, manufactured by TOMY Seiko). Tissue debris was removed by centrifugation, and the supernatant was collected. Fluc activity in the supernatant was measured using the Luciferase Assay System (E1500, manufactured by Promega) according to the manufacturer's protocol. Luminescence was measured using a luminometer (Luminescencer-PSN, manufactured by ATTO). Protein concentration was determined using a commercially available assay kit (BCA Protein Assay Kit, manufactured by Pierce). Fluc activity was expressed as relative light units (RLU) per mg of protein.
Specifically, first, each lipid nanoparticle was intravenously administered into the tail vein of mice in an amount of 0.2 mg/kg of Fluc mRNA, and 6 hours after administration of the lipid nanoparticles, about 50 mg each of the liver, spleen, lung, heart, brain, and muscle was collected and stored frozen. 500 µL of passive lysis buffer (manufactured by Promega) was added to each tube containing the collected organ. The liver was homogenized at 4000 rpm for 20 seconds twice, the spleen, kidney, lung, and heart were homogenized at 5000 rpm for 20 seconds twice, and the muscle was homogenized at 5000 rpm for 20 seconds four times; then, the homogenate was centrifuged at 13000 rpm at 4°C for 10 minutes, and the supernatant was collected as a sample for measurement. The liver and spleen were diluted 100 times with passive lysis buffer. 50 µL of a measurement sample (tissue supernatant) was mixed with 50 µL of luciferase assay buffer of the Luciferase Assay System (E1500, manufactured by Promega) previously added in a test tube by pipetting, and the amount of luminescence was measured with a luminometer. Protein concentration was determined using a commercially available assay kit (BCA Protein Assay Kit, manufactured by Pierce). Fluc activity was expressed as relative light units (RLU) per mg of protein.

[1] = average particle size and polydispersity index by dynamic light scattering; format: physicochemical; conditions: Fluc mRNA-loaded lipid nanoparticles, TOT/DSPC/chol/PEG-DMG=65/15/20/1.5 (mol%)
Method: The average particle size (number average value), ζ-average particle size, and polydispersity index (PdI) of the lipid nanoparticles in PBS(-) (pH 7.4), and the zeta potential in 10 mM HEPES buffer (pH 7.4) were measured using an analyzer "Zetasizer Nano ZS ZEN3600" (manufactured by Malvern) utilizing dynamic light scattering.

[2] = encapsulation rate of lipid nanoparticles (RiboGreen); format: physicochemical; conditions: Fluc mRNA-loaded lipid nanoparticles, TOT/DSPC/chol/PEG-DMG=65/15/20/1.5 (mol%)
Method: The encapsulation rate of the lipid nanoparticles was determined by measuring the amount of encapsulated nucleic acid (mRNA) using RiboGreen (manufactured by Life Technologies), which is an RNAintercalator. The amount of mRNA was quantified based on a calibration curve prepared from a dilution series solution of mRNA at a known concentration.
Specifically, 10 mM HEPES buffer (pH 7.4), 10 w/v% Triton X-100, and RiboGreen were mixed at 978.8 µL, 20 µL, and 1.25 µL per 10 wells, respectively, to obtain a Triton(+) buffer. A Triton(-) buffer was obtained in replacing Triton X-100 with 10 mM HEPES buffer (pH 7.4). 100 µL/well of the sample was added to a black 96-well plate for fluorescence measurement, and 100 µL/well of Triton(+) buffer or Triton(-) buffer was added. After the plate was gently shaken on a shaking incubator (SI-300, manufactured by AS ONE) (700 rpm, 30 seconds), the fluorescence intensity of each well was measured using a microplate reader (VARIOSKAN LUX, manufactured by Thermo Fisher Scientific) (wavelength Ex/Em=500 nm/525 nm), and the nucleic acid encapsulation rate (%) was calculated.

[3] = test system: B cells, T cells, NK cells, dendritic cells, and neutrophils; test: uptake of DiD-modified lipid nanoparticles by spleen cell types (DiD fluorescence intensity); format: in vivo, mice; conditions: Example 37, TOT-5/DSPC/chol/PEG-DMG=65/X/35-X/1.5 (mol%), 1 hour
Method: First, DiD-modified Fluc mRNA-loaded lipid nanoparticles having a composition of TOT-5/DSPC/chol/PEG-DMG=65/X/35-X/1.5 (mol%) (X=3, 5, 10, 15, or 20) were prepared in the same manner as in Example 34, except that the red fluorescent substance DiD was incorporated at 0.5 mol% for DiD modification. The obtained DiD-modified Fluc mRNA-loaded lipid nanoparticles were intravenously administered into the tail vein of BALB/c mice so that the dose of Fluc mRNA was 0.2 mg/kg, the mice were euthanized 1 hour after administration, and the spleen was collected (N=3). As a control, the spleen was also collected from BALB/c mice not administered with lipid nanoparticles.
The spleen cells were stained to distinguish B cells, T cells, NK cells, dendritic cells, and neutrophils. […] After removing the supernatant, the cells were resuspended with 5 mL of cold HBSS(-) buffer, the number of cells was counted, the suspensions were added to a 1.5 mL tube so that 3×10^6 cells were added, and centrifuged at 4°C and 400×g for 5 minutes. […] 6 µL of propidium iodide solution was added to the sample, each cell group was extracted by each surface antigen, and then DiD fluorescence intensity was measured.
DiD-positive cells (cells emitting DiD fluorescence) are cells that have taken up DiD-modified Fluc mRNA-loaded lipid nanoparticles. […]

factor VII (F7) = conditions: mouse liver; cited from earlier work
[4] = Example 11, TOT-5/DOPE/chol/PEG-DMG=60/15/25/1, i.v. tail vein
[5] = Example 14, TOT-5/DSPC/chol/PEG-DMG=65/15/20/1, i.v. tail vein
[6] = Example 33, TOT/DSPC/chol/PEG-DMG=65/15/20/1.5, control CL4F6/DSPC/chol/PEG-DMG=50/10/40/1.5 (mol%), i.v. tail vein

PdI [1]: 0.161
ζ-Average Particle Size [1]: 102.1 nm
Encapsulation Rate [2]: 88.6%
SMILES: CCCCCCCC/C=C\CCCCCCCC(=O)OCC(COC(=O)CCCCCCC/C=C\CCCCCCCC)(COC(=O)CCCCCCC/C=C\CCCCCCCC)NC(=O)CCN1CCCCC1 [TOT-5, 2-((oleoyloxy)methyl)-2-(3-(piperidin-1-yl)propanamido)propane-1,3-diyl dioleate]
Fluc activity (RLU/mg protein) in the liver and spleen (BALB/c mice; Example 11, TOT-5/DOPE/chol/PEG-DMG=50 to 65/10 to 35/0 to 40/1 (mol%), all compositions, i.v. tail vein): confirmed
Fluc activity (RLU/mg protein) in the liver (BALB/c mice; [4]): high
Fluc activity (RLU/mg protein) in the spleen (BALB/c mice; [4]): not so high
Fluc activity (RLU/mg protein) in the liver and spleen (BALB/c mice; Example 13, TOT/DOPE/chol/PEG-DMG=60/15/25/1.0 (mol%), i.v. tail vein): very high
Fluc activity (RLU/mg protein) in the liver and spleen (BALB/c mice; Example 14, TOT-5/DSPC/chol/PEG-DMG=55 to 70/5 to 30/10 to 35/1 (mol%), all compositions, i.v. tail vein): confirmed
Fluc activity (RLU/mg protein) in the liver (BALB/c mice; Example 14, TOT-5/DSPC/chol/PEG-DMG=65/5/30/1, i.v. tail vein): very high
Fluc activity (RLU/mg protein) in the liver (BALB/c mice; [5]): not so high
Fluc activity (RLU/mg protein) in the spleen (BALB/c mice; [5]): high
luciferase activity in the spleen compared with control mice (CL4F6-containing lipid nanoparticles) (BALB/c mice; [6]): higher
Fluc activity, predominant organ (liver or spleen) (BALB/c mice; DSPC content 10 mol% or more): predominantly in the spleen
Fluc activity, predominant organ (liver or spleen) (BALB/c mice; DSPC content less than 10 mol%): predominantly in the liver
uptake by spleen cell types (DiD fluorescence intensity) ([3]; X=3, 5, 10, 15, or 20, i.v. 0.2 mg/kg Fluc mRNA): highly taken up by B cells and dendritic cells
improvement of the uptake by B cells by increasing the DSPC content ([3]; X=3 to 20, i.v. 0.2 mg/kg Fluc mRNA): about 10 times

SMILES: CCCCC/C=C\C/C=C\CCCCCCCCOC1(OCCCCCCCC/C=C\C/C=C\CCCCC)CCN(C)CC1 [YSK05]
ED50 in factor VII (F7) knockdown (factor VII (F7)): 0.06 mg siRNA/kg

SMILES: CCCCC/C=C\C/C=C\CCCCCCCCC(CCCCCCCC/C=C\C/C=C\CCCCC)OC(=O)CCCN(C)C [DLin-MC3-DMA]
ED50 in factor VII (F7) knockdown (factor VII (F7)): 0.005 mg siRNA/kg

PdI [1]: 0.261
ζ-Average Particle Size [1]: 142.6 nm
Encapsulation Rate [2]: 92.2%
SMILES: CCCCCCCC/C=C\CCCCCCCC(=O)OCC(COC(=O)CCCCCCC/C=C\CCCCCCCC)(COC(=O)CCCCCCC/C=C\CCCCCCCC)NC(=O)C1CCN(C(C)C)CC1 [TOT-19, 2-(1-isopropylpiperidine-4-carboxamide)-2-((oleoyloxy)methyl)propane-1,3-diyl dioleate]
luciferase activity in the heart compared with control mice (CL4F6-containing lipid nanoparticles) (BALB/c mice; [6]): very high
luciferase activity in the lung compared with control mice (CL4F6-containing lipid nanoparticles) (BALB/c mice; [6]): highest
luciferase activity in the muscle compared with control mice (CL4F6-containing lipid nanoparticles) (BALB/c mice; [6]): very high
